# pIC50: −log10 of the molar value. Several values for one entry are separate records, joined by “and”; a condition that tells them apart may be missing. Identical values can stand only once. Like-named read-outs stand apart in the source and are kept apart here.
# What was measured:
# canine TRPM8 [1] = target: T1, canine TRPM8 (Canis lupus familiaris, UniProt Q1A7N1); assay: In vitro canine TRPM8 functional assay (Ca2+-sensitive dye, FLIPR/FDSS, icilin activation); format: cell-based; details: HEK293 cells expressing canine TRPM8, icilin activation; for % I (0.5 μM): 0.5 μM compound; for pIC50: eight-point dose-response, read-out: IC50
# T1 construct: expressed in transfected cells
# Procedure, shortened: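 Icilin challenge (final concentration producing ~80% of maximal response) followed a 5 min compound exposure in canine TRPM8-HEK293 cells dye-loaded with Calcium 3. Intracellular Ca2+ was read on FLIPR/FDSS. EC50 and IC50 values came from nonlinear sigmoidal dose-response fits of basal-subtracted, percent-of-maximum data averaged over quadruplicates.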
# Sprague-Dawley rats = assay: CFA-induced paw radiant heat hypersensitivity; format: in vivo, rat; details: rat; for % Reversal: time 2 h (printed 2 h or 2); for inhibition in vivo at 30 mg/kg: time 1 h, read-out: % Reversal
# Experimental: Intraplantar injection of Complete Freund's Adjuvant (CFA) in rodents results in a long-lasting inflammatory reaction, characterized by a pronounced hypersensitivity to both thermal and mechanical stimuli. This hypersensitivity peaks between 24-72 hours following injection and can last for several weeks. […] This paradigm also may be conducted with a multiple dosing or a prophylactic dosing regime designed to alter the course of hyperalgesia development. This test predicts the analgesic, anti-allodynic and antihyperalgesic effect of numerous effective clinical agents, including NSAIDS such as acetaminophen, aspirin and ibuprofen, and opioids such as morphine.
# Each rat was placed in a test chamber on a warm glass surface and allowed to acclimate for approximately 10 minutes. A radiant thermal stimulus (beam of light) was then focused through the glass onto the plantar surface of each hind paw in turn. The thermal stimulus was automatically shut off by a photoelectric relay when the paw was moved or when the cut-off time was reached (20 seconds for radiant heat at ˜5 Amps). An initial (baseline) response latency to the thermal stimulus was recorded for each animal prior to the injection of CFA. Twenty-four hours following intraplantar CFA injection, the response latency of the animal to the thermal stimulus was then re-evaluated and compared to the animal's baseline response time. […] Immediately following the post-CFA latency assessment, test compound or vehicle (usually Solutol, hydroxypropyl methylcellulose, hydroxypropyl beta-cyclodextrin or PEG-400) was administered i.p. or p.o. to rats. […] The percent reversal (% R) of hypersenstivitiy was calculated according to the following formula:
# % Reversal=(Treatment Response-CFA Response)/(Baseline Response-CFA Response)×100.
# male SD rats = assay: Chronic constriction injury (CCI) model of neuropathic pain, acetone-induced hypersensitivity; format: in vivo; details: rat
# Experimental: Through the mesh floor a series of five applications of acetone (0.05 mL/application) was sprayed onto the bottom of the paw using a multidose syringe device. A positive response took the form of an abrupt withdrawal or lifting of the paw. The percentage of positive responses from the five trials represented the individual's overall response that was then averaged over the entire treatment group. […] An ascending dose response relationship (as in Table 10 below) was generated by addition of successive doses of test compound followed by re-assessment of behavior.
# canine TRPM8 [2] = target: T1, canine TRPM8; assay: TRPM8 patch clamp assay (whole-cell, HEK293 cells); format: cell-based
# Experimental: For patch clamp experiments, HEK293 cells stably transfected with canine TRPM8 were cultured in DMEM supplemented with 10% fetal bovine serum, 100 units/ml penicillin, 100 μg/ml streptomycin and 1 mg/ml G418. Cells were maintained at 37° C. and in 5% CO2.
# The extracellular solution contained (in mM): NaCl, 132; EGTA, 1; KCl, 5.4; MgCl2, 0.8; HEPES, 10; glucose, 10; pH=7.4. Recordings were performed using the conventional whole-cell patch clamp technique, 1-2 days after plating cells onto glass coverslips at densities appropriate for single cell recording. Currents were amplified by a patch clamp amplifier and filtered at 2 kHz (Axopatch 200B, Molecular Devices, Union City, Calif.). Menthol (100 μM) was applied to the cell at 0.5 ml/min via a gravity-fed perfusion system. Recordings involving menthol activation were performed at 22° C.
# In experiments where temperatures were varied, temperature ramps were generated by cooling the perfusate in an in-line cooler (Model SC-20, Warner Instruments, Hamden, Conn.) controlled by a temperature controller (Model CL-100, Warner Instruments). The temperature in the vicinity of the recorded cell was measured with a custom-made miniature thermo-microprobe connected to a monitoring thermometer (Model TH-8, Physitemp, Clifton, N.J.), and sampled using Digidata 1322A and pClamp 9.0 (Molecular Devices), as were the currents concurrently measured in the whole-cell patch clamp mode. The current was continuously sampled (at 100 Hz) at a holding potential of −60 mV.
# Compounds were diluted from 10 mM DMSO stocks (stored at −20° C.) into an extracellular solution either containing 100 μM menthol or subjecting to cooling. Increasing concentrations of a compound were applied to a cell in a cumulative manner and concentration-dependent responses were measured after steady-state activation was achieved by either 100 μM menthol or cooling to 10° C. A saturating concentration of a reference antagonist was applied at the end of an experiment (either in the presence of 100 μM menthol or 10° C. temperature) to establish the baseline from which all the other measurements were subtracted.
# Percentage inhibition by a compound was calculated as follows: 100×(1−Icomp/I0); where Icomp and I0 are steady-state current amplitudes in either the presence or absence of a concentration of the compound.
# rats = assay: Reversal of icilin-induced behaviors (wet-dog shakes) in rats; format: in vivo; details: rat; 30 mg/kg p.o.; 1 h post-icilin
# Experimental: In this paradigm, icilin-induced shaking was counted for 10 minutes followed by administration of a compound of Formula (I). The diminution of shaking behavior is represented as a percent inhibition relative to icilin-induced shakes in the absence of test compound administration, as described by the following formula: % Inhibition=[1−(WDS count following test compound dose/WDS count prior to test compound dose)]×100.
# male CD1 mice = assay: Acetic acid graded abdominal irritant test with a 24-hour thioglycolate pretreatment; format: in vivo; details: mouse; 30 mg/kg p.o.; time 1 h; abdominal contractions vs vehicle
# Experimental: A chemical irritant (such as acetic acid, kaolin, bradykinin, phenyl-p-(benzo) quinine, bromo-acetylcholine, or zymosan) is injected in mice intraperitoneally, causing a contraction of the abdominal musculature, which is characterized by an elongation of the body extending through to the hind limbs. The number of such responses is quantitated and is reduced by pretreatment of analgesic agents, thus forming the basis for a screening test (Collier H O et al. Br J Pharmacol Chemother 1968, 32(2): 295-310). This type of abdominal irritant test has been used to predict the analgesic effect of numerous clinically effective agents, the potency of which in the abdominal irritant test parallels the magnitude of the dose needed in the relief of clinical pain.
# One modification of the chemically-induced abdominal irritant model of visceral pain is to pretreat animals with agents known to induce inflammatory responses following intraperitoneal injection (such as LPS, zymosan, or thioglycolate). […] Because of the up-regulation of the TRPM8 receptor in inflammation, TRPM8 antagonists that are effective at reducing the mean number of contractions are predicted to provide antiinflammatory action in human clinical use.
# The ability of compounds of Formula (I) to mitigate chemical irritant—induced abdominal contractions following a pre-conditioning inflammatory stimulus were studied. […]
# Male Sprague Dawley rats = assay: Inhibition of icilin-induced wet-dog shakes in rats; format: in vivo; details: rat; 30 mg/kg i.p.; 15′ pre icilin; wet-dog shakes vs vehicle
# [3] = read-out: IC50, mode of activation Cold (10° C.), HEK293 cells stably transfected with canine TRPM8, cooling to 10° C.
# [4] = read-out: IC50, mode of activation Menthol (100 μM), HEK293 cells stably transfected with canine TRPM8, 100 μM menthol, 22° C.
# T1 sequence (Q1A7N1 1-1104): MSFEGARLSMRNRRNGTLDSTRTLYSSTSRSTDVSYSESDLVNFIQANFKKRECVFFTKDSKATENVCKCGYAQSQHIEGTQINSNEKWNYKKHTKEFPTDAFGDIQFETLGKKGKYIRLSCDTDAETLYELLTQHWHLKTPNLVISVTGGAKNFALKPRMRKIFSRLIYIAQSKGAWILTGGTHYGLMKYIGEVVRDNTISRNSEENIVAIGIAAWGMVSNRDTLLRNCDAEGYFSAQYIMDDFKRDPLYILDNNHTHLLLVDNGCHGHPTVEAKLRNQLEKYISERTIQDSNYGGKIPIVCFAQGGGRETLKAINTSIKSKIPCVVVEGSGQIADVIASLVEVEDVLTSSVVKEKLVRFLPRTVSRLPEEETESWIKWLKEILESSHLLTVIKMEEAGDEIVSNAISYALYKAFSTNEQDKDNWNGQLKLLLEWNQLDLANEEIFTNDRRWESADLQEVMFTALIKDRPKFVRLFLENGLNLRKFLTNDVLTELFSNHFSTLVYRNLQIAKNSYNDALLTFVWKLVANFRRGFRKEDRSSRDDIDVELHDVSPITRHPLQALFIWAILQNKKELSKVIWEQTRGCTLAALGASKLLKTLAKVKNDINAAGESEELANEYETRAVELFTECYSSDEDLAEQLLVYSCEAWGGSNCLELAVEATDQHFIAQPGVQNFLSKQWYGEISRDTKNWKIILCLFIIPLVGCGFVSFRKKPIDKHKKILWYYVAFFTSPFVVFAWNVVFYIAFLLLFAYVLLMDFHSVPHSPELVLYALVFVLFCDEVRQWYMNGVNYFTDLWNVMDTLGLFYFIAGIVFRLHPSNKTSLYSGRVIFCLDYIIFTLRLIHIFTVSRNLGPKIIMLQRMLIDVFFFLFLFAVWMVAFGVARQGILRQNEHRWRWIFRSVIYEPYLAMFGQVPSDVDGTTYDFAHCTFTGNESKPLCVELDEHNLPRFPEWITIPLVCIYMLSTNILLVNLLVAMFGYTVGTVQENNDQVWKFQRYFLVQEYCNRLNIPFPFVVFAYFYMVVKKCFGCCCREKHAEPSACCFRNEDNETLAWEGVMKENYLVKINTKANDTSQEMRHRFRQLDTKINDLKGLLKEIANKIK
Molecule,% I (0.5 μM) (canine TRPM8 [1]),pIC50 (canine TRPM8 [1]),% Reversal (Sprague-Dawley rats; 30 mg/kg p.o.),"% of Allodynic Baseline (male SD rats; 30 mg/kg p.o., preRx 1 hr)",pIC50 (canine TRPM8 [2]; [3]),pIC50 (canine TRPM8 [2]; [4]),% Inhibition (rats),% I (male CD1 mice),"inhibition at 1 µM (canine TRPM8 [1]; HEK293, 1 μM compound, read-out: % I (1 μM))","inhibition in vivo at 30 mg/kg (Sprague-Dawley rats; ip, 30 mg/kg i.p.)","inhibition in vivo at 30 mg/kg (Sprague-Dawley rats; po, 30 mg/kg p.o.)","ED50 (Sprague-Dawley rats; po, p.o., 3-point dose-response, 10% solutol vehicle, 1 h time point, read-out: oral ED50)",% Inhibition (Male Sprague Dawley rats),"% of Allodynic Baseline (male SD rats; 30 mg/kg p.o., preRx 4 hr)","% of Allodynic Baseline (male SD rats; 100 mg/kg p.o., preRx 4 hr)"
(S)-[1-(3-Bromo-benzo[b]thiophen-2-yl)-2-(4-fluoro-phenyl)-ethyl]-phosphonic acid diisopropyl ester [Cpd 239],"103, 103%",7.43 and 7.57 and 7.51,36%,29.4%,8.24,8.52,48.4%,–,–,–,–,–,–,–,–
"CC(C)OP(=O)(OC(C)C)C(Cc1ccc(F)c(F)c1)c1sc2ccccc2c1Br (stereo not drawn) [Cpd 15, [1-(3-Bromo-benzo[b]thiophen-2-yl)-2-(3,4-difluoro-phenyl)-ethyl]-phosphonic acid diisopropyl ester]",–,7.54 and 7.32 and 6.98,–,–,–,–,–,33%,99%,95%,82%,11.4 mg/kg,71.1%,–,–
(S)-[1-(3-Bromo-benzo[b]thiophen-2-yl)-2-(4-trifluoromethoxy-phenyl)-ethyl]-phosphonic acid diisopropyl ester [Cpd 236],"103, 103%",–,25%,–,8.54,8.85,36.8%,–,–,–,–,–,–,28.6%,68.8%
